Assay results published in patent US8680133B2, “Alkyl indole-3-carbinol-derived antitumor agents” (The Ohio State University Research Foundation, priority 2009, dated 2014).

Assays:
RPMl-8226 = test: NCI60 screening, Leukemia, RPMl-8226; assay type: cell-based, human
SR = test: NCI60 screening, Leukemia, SR; assay type: cell-based, human
COLO 205 = test: NCI60 screening, Colon Cancer, COLO 205; assay type: cell-based, human
HCC-2998 = test: NCI60 screening, Colon Cancer, HCC-2998; assay type: cell-based, human
HCT-15 = test: NCI60 screening, Colon Cancer, HCT-15; assay type: cell-based, human
SW-620 = test: NCI60 screening, Colon Cancer, SW-620; assay type: cell-based, human
MALME-3M = test: NCI60 screening, Melanoma, MALME-3M; assay type: cell-based, human
SK-OV-3 = test: NCI60 screening, Ovarian Cancer, SK-OV-3; assay type: cell-based, human
ACHN = test: NCI60 screening, Renal Cancer, ACHN; assay type: cell-based, human
CAKI-1 = test: NCI60 screening, Renal Cancer, CAKI-1; assay type: cell-based, human
U0-31 = test: NCI60 screening, Renal Cancer, U0-31; assay type: cell-based, human
HS 578T = test: NCI60 screening, Breast Cancer, HS 578T; assay type: cell-based, human
T-47D = test: NCI60 screening, Breast Cancer, T-47D; assay type: cell-based, human
[1] = Hematology, serum chemistry, liver weight and food consumption of mice fed the OSU-A9M diet; assay type: in vivo
From the text: Further supporting a lack of toxicity with the experimental diet is a preservation of body weight (and liver weight) of mice sacrificed at the conclusion of the 6-week treatment period. 1.3±0.1 g (3.9±0.5%) in drug-treated mice vs. 1.5±0.3 g (4.3±0.7%) in controls; liver percent body weight in parentheses following absolute weight, means±SD, n=7, P=0.1 and 0.5 for absolute and relative values. There was no significant difference in the amount of control or experimental diet consumed by the mice [2.4±0.3 g in drug-treated mice vs 2.5±0.1 g in controls (P=0.5)]. Throughout the treatment period, the drug-treated mice consumed 34.1±4.6 mg OSU-A9M per kg body weight per day, calculated as g diet consumed per day/g body weight×450 (overall mean±SD of weekly means).

[2] = Homo sapiens, read-out: LC50 (the source's name)
[3] = 450 ppm in diet, 6-week treatment, mean±SD, n=7
[4] = 450 ppm in diet, 18 to 24 weeks of age, mean±SD, n=5

## Cc1ccc2c(c1)c(CO)cn2S(=O)(=O)c1ccc(Cl)c([N+](=O)[O-])c1 [OSU-A9M, [1-(4-chloro-3-nitro-benzenesulfonyl)-5-methyl-1H-indol-3-yl]-methanol]
RPMl-8226
  TGI: 3.80E−6
RPMl-8226; Homo sapiens
  GI50: 1580 nM
RPMl-8226; [2]
  CC50: 9140 nM
RPMl-8226; Log10 Concentration −4.0
  Percent Growth: −68%
RPMl-8226; Log10 Concentration −5.0
  Percent Growth: −55%
RPMl-8226; Log10 Concentration −6.0
  Percent Growth: 76%
RPMl-8226; Log10 Concentration −7.0
  Percent Growth: 84%
RPMl-8226; Log10 Concentration −8.0
  Percent Growth: 93%
SR
  TGI: 2.47E−6
SR; Homo sapiens
  GI50: 371 nM
SR; [2]
  CC50: > 100000 nM
SR; Log10 Concentration −4.0
  Percent Growth: −46%
SR; Log10 Concentration −5.0
  Percent Growth: −25%
SR; Log10 Concentration −6.0
  Percent Growth: 16%
SR; Log10 Concentration −7.0
  Percent Growth: 94%
SR; Log10 Concentration −8.0
  Percent Growth: 85%
COLO 205
  TGI: 3.14E−6
COLO 205; Homo sapiens
  GI50: 1700 nM
COLO 205; [2]
  CC50: 5790 nM
COLO 205; Log10 Concentration −4.0
  Percent Growth: −87%
COLO 205; Log10 Concentration −5.0
  Percent Growth: −95%
COLO 205; Log10 Concentration −6.0
  Percent Growth: 93%
COLO 205; Log10 Concentration −7.0
  Percent Growth: 92%
COLO 205; Log10 Concentration −8.0
  Percent Growth: 98%
HCC-2998
  TGI: 2.73E−6
HCC-2998; Homo sapiens
  GI50: 1420 nM
HCC-2998; [2]
  CC50: 5230 nM
HCC-2998; Log10 Concentration −4.0
  Percent Growth: −99%
HCC-2998; Log10 Concentration −5.0
  Percent Growth: −100%
HCC-2998; Log10 Concentration −6.0
  Percent Growth: 77%
HCC-2998; Log10 Concentration −7.0
  Percent Growth: 91%
HCC-2998; Log10 Concentration −8.0
  Percent Growth: 96%
HCT-15
  TGI: 2.82E−6
HCT-15; Homo sapiens
  GI50: 1500 nM
HCT-15; [2]
  CC50: 5310 nM
HCT-15; Log10 Concentration −4.0
  Percent Growth: −100%
HCT-15; Log10 Concentration −5.0
  Percent Growth: −100%
HCT-15; Log10 Concentration −6.0
  Percent Growth: 82%
HCT-15; Log10 Concentration −7.0
  Percent Growth: 94%
HCT-15; Log10 Concentration −8.0
  Percent Growth: 92%
SW-620
  TGI: 2.44E−6
SW-620; Homo sapiens
  GI50: 1210 nM
SW-620; [2]
  CC50: 4940 nM
SW-620; Log10 Concentration −4.0
  Percent Growth: −100%
SW-620; Log10 Concentration −5.0
  Percent Growth: −100%
SW-620; Log10 Concentration −6.0
  Percent Growth: 63%
SW-620; Log10 Concentration −7.0
  Percent Growth: 90%
SW-620; Log10 Concentration −8.0
  Percent Growth: 96%
MALME-3M; Homo sapiens, Malme-3M
  GI50: 1870 nM
MALME-3M; Homo sapiens, Malme-3M, read-out: LC50 (the source's name)
  CC50: 9000 nM
MALME-3M; MALME-3M
  TGI: 4.10E−6
MALME-3M; MALME-3M, Log10 Concentration −4.0
  Percent Growth: −75%
MALME-3M; MALME-3M, Log10 Concentration −5.0
  Percent Growth: −57%
MALME-3M; MALME-3M, Log10 Concentration −6.0
  Percent Growth: 90%
MALME-3M; MALME-3M, Log10 Concentration −7.0
  Percent Growth: 78%
MALME-3M; MALME-3M, Log10 Concentration −8.0
  Percent Growth: 83%
SK-OV-3
  TGI: 3.06E−6
SK-OV-3; Homo sapiens
  GI50: 1670 nM
SK-OV-3; [2]
  CC50: 5620 nM
SK-OV-3; Log10 Concentration −4.0
  Percent Growth: −100%
SK-OV-3; Log10 Concentration −5.0
  Percent Growth: −97%
SK-OV-3; Log10 Concentration −6.0
  Percent Growth: 92%
SK-OV-3; Log10 Concentration −7.0
  Percent Growth: 97%
SK-OV-3; Log10 Concentration −8.0
  Percent Growth: 95%
ACHN
  TGI: 3.14E−6
ACHN; Homo sapiens
  GI50: 1760 nM
ACHN; [2]
  CC50: 5600 nM
ACHN; Log10 Concentration −4.0
  Percent Growth: −100%
ACHN; Log10 Concentration −5.0
  Percent Growth: −100%
ACHN; Log10 Concentration −6.0
  Percent Growth: 99%
ACHN; Log10 Concentration −7.0
  Percent Growth: 93%
ACHN; Log10 Concentration −8.0
  Percent Growth: 98%
CAKI-1
  TGI: 2.90E−6
CAKI-1; Homo sapiens
  GI50: 1480 nM
CAKI-1; [2]
  CC50: 5700 nM
CAKI-1; Log10 Concentration −4.0
  Percent Growth: −95%
CAKI-1; Log10 Concentration −5.0
  Percent Growth: −92%
CAKI-1; Log10 Concentration −6.0
  Percent Growth: 79%
CAKI-1; Log10 Concentration −7.0
  Percent Growth: 95%
CAKI-1; Log10 Concentration −8.0
  Percent Growth: 92%
U0-31
  TGI: 3.46E−6
U0-31; Homo sapiens
  GI50: 1830 nM
U0-31; [2]
  CC50: 6540 nM
U0-31; Log10 Concentration −4.0
  Percent Growth: −100%
U0-31; Log10 Concentration −5.0
  Percent Growth: −83%
U0-31; Log10 Concentration −6.0
  Percent Growth: 97%
U0-31; Log10 Concentration −7.0
  Percent Growth: 98%
U0-31; Log10 Concentration −8.0
  Percent Growth: 87%
HS 578T
  TGI: 3.05E−6
HS 578T; Homo sapiens
  GI50: 1020 nM
HS 578T; [2]
  CC50: 9110 nM
HS 578T; Log10 Concentration −4.0
  Percent Growth: −63%
HS 578T; Log10 Concentration −5.0
  Percent Growth: −54%
HS 578T; Log10 Concentration −6.0
  Percent Growth: 51%
HS 578T; Log10 Concentration −7.0
  Percent Growth: 88%
HS 578T; Log10 Concentration −8.0
  Percent Growth: 83%
T-47D
  TGI: 2.91E−6
T-47D; Homo sapiens, T47D
  GI50: 1120 nM
T-47D; Homo sapiens, T47D, read-out: LC50 (the source's name)
  CC50: 7540 nM
T-47D; Log10 Concentration −4.0
  Percent Growth: −61%
T-47D; Log10 Concentration −5.0
  Percent Growth: −65%
T-47D; Log10 Concentration −6.0
  Percent Growth: 56%
T-47D; Log10 Concentration −7.0
  Percent Growth: 93%
T-47D; Log10 Concentration −8.0
  Percent Growth: 95%
[1]; 450 ppm experimental diet
  Amount of diet consumed: 2.4 ± 0.3 g
[1]; [3]
  Liver percent body weight: 3.9±0.5%
  Liver weight (absolute): 1.3 ± 0.1 g
[1]; [4]
  ALP: 70.0 ± 14.6 iu/L
  ALT: 25.8 ± 8.0 iu/L
  AST: 69.6 ± 27.2 iu/L
  Albumin: 3.6 ± 0.2 g/dL
  BUN: 23.6 ± 2.9 mg/dL
  CK: 222.2 ± 144.5 iu/L
  Calcium: 10.7 ± 0.2 mg/dL
  Cholesterol: 193.4 ± 28.1 mg/dL
  Creatinine: 0.1 ± 0.0 mg/dL
  Globulin: 2.2 ± 0.1 g/dL
  Glucose: 301.8 ± 53.6 mg/dL
  Lymphocytes: 9.8 ± 3.1 ×10^3/μl
  Nucleated cells: 11.4 ± 3.7 ×10^3/μl
  PCV: 44.4 ± 1.1%
  Phosphorus: 6.5 ± 0.5 mg/dL
  Platelets: 327.2 ± 310.0 ×10^3/μl
  Potassium: 6.9 ± 0.4 mEq/L
  RBC: 10.3 ± 0.3 ×10^6/μl
  Segmented neutrophils: 1.3 ± 0.5 ×10^3/μl
  Total Bilirubin: 0.2 ± 0.0 mg/dL
  Total Protein: 5.8 ± 0.3 g/dL
[1]; 450 ppm in diet, in words
  Complete cell blood counts and serum chemistry profiles: none of the measured parameters are affected by drug treatment
